Data from article PMC12470768, “Mentha rotundifolia, a Source of Amoebicidal Agents Against Naegleria fowleri” (International Journal of Molecular Sciences, 2025).

Key:
N. fowleri trophozoites [1] = assay: Chromatin condensation (Hoechst 33342 / propidium iodide staining); type: cell-based, Naegleria fowleri; details: IC90, 24 h
Protocol: (§1) To evaluate the induction of PCD, N. fowleri strains ATCC® 30808™ and ATCC® 30215™ were treated with the IC90 concentration of the compounds 7 and 10 for 24 h at 37 °C. After incubation, specific fluorescent markers were used to assess various detectable metabolic events, following the manufacturers’ instructions for each assay. Amphotericin B was used as a positive control, and untreated amoebae served as a negative control. Fluorescence imaging was performed using EVOS M5000 Cell Imaging System (Life Technologies, Madrid, Spain) and confocal microscope Leica DMI 4000 B equipped with Leica Application Suite X software version 3.5.5.19976 and Leica HC PL APO 63x/1.40 OIL CS2 objective (Leica Microsystems, Wetzlar, Germany). The fluorescence obtained was expressed as mean ± standard deviation from at least three independent experiments.
To evaluate the chromatin condensation, cells were stained with Hoechst 33,342 (1 µM) and propidium iodide (PI) (1 µM) for 20 min in the dark. Hoechst 33,342 binds to condensed chromatin in apoptotic cells and emits blue fluorescence, while PI enters cells with compromised membranes, indicative of late apoptosis or necrosis, and binds to DNA, emitting red fluorescence. […] Untreated cells were included as negative controls to establish baseline fluorescence levels.

N. fowleri trophozoites [2] = assay: Intracellular ATP levels (CellTiter-Glo); type: cell-based, Naegleria fowleri; details: treated with IC90, 24 h; negative control set as 100% ATP
Protocol: as §1
Adenosine triphosphate (ATP) production was quantified using the CellTiter-Glo® luminescent cell viability assay (Promega, Madrid, Spain). Amoebae were treated with the compounds, and an equal volume of reagent was added per well. Following cell lysis, the emitted luminescence, which is directly proportional to ATP content, was measured using the EnSpire® Multimode Plate Reader (PerkinElmer, Madrid, Spain). […]

N. fowleri trophozoites [3] = assay: Plasma membrane permeability (SYTOX Green); type: cell-based, Naegleria fowleri; details: IC90, 24 h; compound 7 on ATCC 30808, compound 10 on ATCC 30215, amphotericin B on both
Protocol: as §1
After treatment, SYTOX™ Green nucleic acid stain (Life Technologies, Madrid, Spain) was added to each well at a final concentration of 1 μg/mL and incubated for 15 min in the dark. […] In contrast, viable cells with intact membranes exclude the dye and remain non-fluorescent. Untreated trophozoites were used as negative controls.

N. fowleri trophozoites [4] = assay: Mitochondrial membrane potential (JC-1); type: cell-based, Naegleria fowleri; details: IC90, 24 h; compound 7 on ATCC 30808, compound 10 on ATCC 30215
Protocol: as §1
Mitochondrial membrane potential (ΔΨm) was assessed using the JC-1 dye (1,1′,3,3′-tetraethyl-5,5′,6,6′-tetrachloroimidacarbocyanine iodide; Cayman Chemical, Madrid); following treatment, cells were harvested by centrifugation at 2500 rpm for 10 min and resuspended in JC-1 assay buffer. […] In cells with depolarized mitochondria, JC-1 remains in its monomeric form, emitting green fluorescence (emission at ~535 nm), indicating mitochondrial damage and a loss of ΔΨm.

N. fowleri trophozoites [5] = assay: Cytoskeletal integrity (phalloidin-TRITC actin staining); type: cell-based, Naegleria fowleri; details: IC90; compound 7 on ATCC 30808, compound 10 on ATCC 30215
Protocol: as §1
Cytoskeletal disruption in treated amoebae was evaluated by staining with phalloidin conjugated to tetramethylrhodamine B isothiocyanate (phalloidin- TRITC), which binds specifically to filamentous actin, emitting red fluorescence. DAPI staining was used in parallel to visualize nuclear DNA, emitting blue fluorescence. […] Following washing with PBS, fluorescence images were captured with a 63x oil immersion objective.

[6] = tested on: N. fowleri ATCC® 30215™ trophozoites; assay: In vitro amoebicidal activity against N. fowleri trophozoites (alamarBlue), strain ATCC 30215; type: cell-based, Naegleria fowleri; details: trophozoite stage; for IC50: Naegleria fowleri, ATCC30215, 48 h, mean ± SD; for N. fowleri ATCC 30215 SI (CC50/IC50): selectivity index vs murine macrophages J774
Protocol: (§2) The in vitro activity of the tested compounds against Naegleria fowleri trophozoites was evaluated using two clinical strains obtained from the American Type Culture Collection (ATCC® 30808™ and ATCC® 30215™). Trophozoites were cultured axenically at 37 °C in 2% (w/v) Bactocasitone medium (Thermo Fisher Scientific, Madrid, Spain), supplemented with 10% (v/v) fetal bovine serum (FBS), […] penicillin G sodium salt, and 0.5 mg/mL streptomycin sulfate (Sigma-Aldrich, Madrid, Spain). For cytotoxicity assessment, murine macrophages from the J774A.1 cell line (ATCC® TIB-67) were cultured in Dulbecco’s Modified Eagle’s Medium (DMEM) supplemented with 10% (v/v) FBS and 10 μg/mL gentamicin sulfate (Sigma-Aldrich, Madrid, Spain). The macrophages were maintained at 37 °C in a 5% CO2 atmosphere.
(§3) The trophocidal activity of the compounds was evaluated using the alamarBlue® colorimetric assay. N. fowleri trophozoites were seeded in duplicate in a 96-well microtiter plate at a concentration of 2 × 10^5 cells/mL and incubated for adhesion in Bactocasitone medium (2% v/w) (Thermo Fisher Scientific, Madrid, Spain), supplemented with 10% (v/v) fetal bovine serum (FBS), 0.3% penicillin G sodium salt, and 0.5 mg/mL streptomycin sulfate (Sigma-Aldrich, Madrid, Spain). Different concentrations of the evaluated compounds, prepared in fresh Bactocasitone medium, were added to the wells (50 µL per well). The negative control consisted of trophozoites incubated with the medium alone. After adding 10 µL of alamarBlue® reagent, the plates were incubated at 37 °C for 48 h with slight agitation. The data were analyzed using nonlinear regression with GraphPad Prism 9 software to determine the IC50 and IC90 values, which were then used for further studies on PCD [10].

N. fowleri trophozoites [7] = assay: Autophagic vacuole formation (monodansylcadaverine); type: cell-based, Naegleria fowleri; details: IC90, 24 h
Protocol: as §1
Autophagy is a vital cellular process involved in the degradation and recycling of intracellular components, often activated in response to drug exposure. To evaluate autophagic activity, trophozoites were stained with monodansylcadaverine (MDC) (Sigma-Aldrich, St. Louis, MO, USA) during 30 min in the dark. […] The dye emits a characteristic cyan-blue fluorescence, allowing the detection and qualitative analysis of autophagic vacuoles in treated cells.

N. fowleri trophozoites [8] = assay: Intracellular reactive oxygen species (CellROX Deep Red); type: cell-based, Naegleria fowleri; details: IC90, 24 h; compound 7 on ATCC 30808 (p < 0.05), compound 10 on ATCC 30215 (p < 0.01)
Protocol: as §1
The oxidative stress induced by the generation of ROS in N. fowleri was evaluated using the CellROX® Deep Red reagent (Invitrogen, Thermo Fisher Scientific, Madrid, Spain). Following incubation, cells were stained with the dye at a final concentration of 5 μM and then incubated for an additional 30 min. The reagent enters cells in response to elevated ROS levels, emitting red fluorescence at approximately 644/665 nm. Increased fluorescence intensity indicated higher levels of ROS accumulation, reflecting elevated oxidative stress in the treated cells.

[9] = tested on: N. fowleri ATCC® 30808™ trophozoites; assay: In vitro amoebicidal activity against N. fowleri trophozoites (alamarBlue), strain ATCC 30808; type: cell-based, Naegleria fowleri; details: for IC50: mean ± SD; for N. fowleri ATCC 30808 SI (CC50/IC50): selectivity index vs murine macrophages J774
Protocol: as §2, §3

[10] = tested on: N. fowleri ATCC® 30215™ cyst stage; assay: In vitro cysticidal activity against N. fowleri cysts (alamarBlue), strain ATCC 30215; type: cell-based; details: Naegleria fowleri, ATCC30215, mean ± SD
Protocol: (§4) Following the assays against trophozoites, the compounds were further evaluated for their activity against the cyst stage of N. fowleri (ATCC® 30808™ and ATCC® 30215™). To induce cyst formation, the trophozoites were centrifuged, resuspended in MYAS medium, and incubated under slight agitation at room temperature for 10 days. After this, mature cysts were harvested, pretreated with 0.5% SDS, and seeded in a 96-well microtiter plate at 2 × 10^5 cells/mL. The drugs were tested in serial dilutions, and after 24 h of incubation at 37 °C, the medium was replaced with fresh Bactocasitone medium. The colorimetric alamarBlue® assay was used to assess cyst viability, with 10 µL of reagent added to each well. The plates were incubated for an additional 72 h at 37 °C, and fluorescence was measured using the EnSpire® Multimode Plate Reader (PerkinElmer, Madrid, Spain). The results were compared to a negative control (untreated cysts) and a positive control (amphotericin B and miltefosine). The IC50 values were determined through nonlinear regression analysis.

[11] = tested on: N. fowleri ATCC® 30808™ cyst stage; assay: In vitro cysticidal activity against N. fowleri cysts (alamarBlue), strain ATCC 30808; type: cell-based, Naegleria fowleri; details: for IC50: Naegleria fowleri, ATCC30808, mean ± SD
Protocol: as §4

[12] = In vitro cytotoxicity on murine macrophages (alamarBlue); type: cell-based; details: mouse, J774A.1 murine macrophage cell line (ATCC TIB-67), mean ± SD
Protocol: as §2
The cytotoxicity of the compounds was assessed against the murine macrophage cell line J774A.1 (ATCC® TIB-67™). Cells were maintained at 37 °C in a 5% CO2 atmosphere in DMEM medium. In the assay, different concentrations of the compounds were added to the cells in a 96-well microtiter plate, and after 24 h of incubation, 10 µL of alamarBlue® reagent was added. The fluorescence intensity was measured using the EnSpire® Multimode Plate Reader (PerkinElmer, Madrid, Spain). The cytotoxic concentration required to reduce cell viability by 50% (CC50) was determined through nonlinear regression analysis using GraphPad Prism 9 software. The results were compared with those obtained against trophozoites to calculate the selectivity index (S.I.) for N. fowleri.

[13] = Naegleria fowleri, ATCC30808, 48 h, trophozoite stage, 48 h

SMILES	propidium iodide (red) fluorescence (N. fowleri trophozoites [1]; compound 7 on ATCC 30808)	chromatin condensation (Hoechst 33342 fluorescence) (N. fowleri trophozoites [1]; compound 7 on ATCC 30808, compound 10 on ATCC 30215, amphotericin B on both)	inhibition of ATP levels compared to the negative control (N. fowleri trophozoites [2]) [%]	plasma membrane integrity (SYTOX Green fluorescence) (N. fowleri trophozoites [3])	mitochondrial membrane potential (JC-1) (N. fowleri trophozoites [4])	actin cytoskeleton (phalloidin-TRITC) (N. fowleri trophozoites [5])	IC50 [6] [µM]	N. fowleri ATCC 30215 SI (CC50/IC50) [6]	autophagic vesicles (MDC staining) (N. fowleri trophozoites [7])	intracellular ROS accumulation (CellROX Deep Red) (N. fowleri trophozoites [8])	IC50 [9, 13] [µM]	IC90 ([9]; Naegleria fowleri, ATCC30808, trophozoites, compound 7 used on ATCC 30808 (Figure 8 legend)) [µM]	N. fowleri ATCC 30808 SI (CC50/IC50) ([9]; trophozoite stage)	IC50 [10] [µM]	IC50 [11] [µM]	N. fowleri ATCC 30808 SI (CC50/IC50), cyst stage ([11]; selectivity index vs murine macrophages J774)	CC50 at 24 h [12] [µM]	IC50 ([9]; Naegleria fowleri, ATCC30808, trophozoites, extracts, fractions, subfractions, isolated compound and reference drugs) [µg/mL]
COC(=O)[C@]12CC[C@@H](C)[C@H](C)C1C1=CCC3[C@@]4(C)CC[C@H](OC(=O)CCC(=O)O)C(C)(C)C4CC[C@@]3(C)[C@]1(C)CC2 (stereo partly drawn) [Compound 7, 3-O-(Hemisuccinyl)-methyl ursolate]	strong red fluorescence	clear chromatin condensation	89.5	significant membrane disruption	marked decrease in mitochondrial membrane potential	reduced actin signal intensity	29.7 ± 1.59	>5.90	autophagosome formation	significantly increased ROS	28.7 ± 1.8	39.5	>6.11	28 ± 1.59	36.6 ± 1.49	4.78	> 175	–
COC(=O)[C@]12CC[C@@H](C)[C@H](C)C1C1=CCC3[C@@]4(C)CC[C@H](OC(=O)CCCC(=O)O)C(C)(C)C4CC[C@@]3(C)[C@]1(C)CC2 (stereo partly drawn) [Compound 8, 3-O-(Hemiglutaryl)-methyl ursolate]	–	–	–	–	–	–	38.7 ± 2.15	2.20	–	–	66.6 ± 9.25	–	1.24	–	–	–	85 ± 5	–
CCCCCCCCCCCCCCCCOP(=O)([O-])OCC[N+](C)(C)C [Miltefosine, reference compound]	–	–	–	–	–	–	81.6 ± 7.23	1.57	–	–	38.7 ± 4.23	–	3.30	37.8 ± 5.6	21.5 ± 2.62	–	128 ± 8.85	12.7 ± 1.49
